Tests used:
[1] = Clinical monitoring of an MS patient after a treatment flash; format: in vivo, human; conditions: MS patient No. 2, progressive form, flash on D1 after attack; worsening signs at D60
From the text: (§1) Urines of this patient were collected during the progression of their disease. The patient was hospitalized on D0 for an attack.

[2] = test system: GM2AP and Saposin B proteins in the urines; experiment: Elisa assay of GM2AP and Saposin B in the urine of an MS patient after a treatment flash; format: in vivo, human; conditions: MS patient No. 2, progressive form, up to 23 days; increase again, high at D60
From the text: as §1

## O=P1(N(CCCl)CCCl)NCCCO1 (centres unmarked) [Endoxan, cyclophosphamide]
[1]
  clinical effect of the flash: clinical improvement
[2]
  GM2AP and Saposin B concentrations in urine over time after the flash: decrease gradually over time
